Reference: the NIST ThermoML archive (doi:10.1016/j.fluid.2015.04.017)

Experiment: xn = mol fraction of the nth substance listed
Conditions: 101 kPa, Liquid; for viscosity: Concentric cylinders viscometry; for mass density: Vibrating tube method

CCOC(=O)C(C)O (stereo not drawn) [DL-ethyl lactate] + CN1CCCC1=O
Conditions	mass density [kg/m3]	viscosity [mPa·s]
288.15 K, x1 = 0.0999	1040.68	2.34
288.15 K, x1 = 0.2	1041.7	2.601
288.15 K, x1 = 0.3001	1042.78	2.89
288.15 K, x1 = 0.4	1043.43	3.122
288.15 K, x1 = 0.4997	1043.89	3.352
288.15 K, x1 = 0.6	1043.93	3.508
288.15 K, x1 = 0.7002	1043.56	3.581
288.15 K, x1 = 0.7999	1042.82	3.567
288.15 K, x1 = 0.8997	1041.57	3.456
288.15 K, x1 = 1	1039.28	3.207
293.15 K, x1 = 0.0999	1036.17	2.125
293.15 K, x1 = 0.2	1037.14	2.347
293.15 K, x1 = 0.3001	1038.17	2.585
293.15 K, x1 = 0.4	1038.75	2.772
293.15 K, x1 = 0.4997	1039.12	2.952
293.15 K, x1 = 0.6	1039.06	3.066
293.15 K, x1 = 0.7002	1038.56	3.11
293.15 K, x1 = 0.7999	1037.68	3.08
293.15 K, x1 = 0.8997	1036.28	2.975
293.15 K, x1 = 1	1033.84	2.75
298.15 K, x1 = 0.0999	1031.66	1.941
298.15 K, x1 = 0.2	1032.59	2.132
298.15 K, x1 = 0.3001	1033.56	2.331
298.15 K, x1 = 0.4	1034.06	2.482
298.15 K, x1 = 0.4997	1034.35	2.624
298.15 K, x1 = 0.6	1034.17	2.706
298.15 K, x1 = 0.7002	1033.55	2.726
298.15 K, x1 = 0.7999	1032.53	2.692
298.15 K, x1 = 0.8997	1030.98	2.591
298.15 K, x1 = 1	1028.39	2.39
303.15 K, x1 = 0.0999	1027.16	1.785
303.15 K, x1 = 0.2	1028.05	1.947
303.15 K, x1 = 0.3001	1028.95	2.113
303.15 K, x1 = 0.4	1029.38	2.235
303.15 K, x1 = 0.4997	1029.57	2.349
303.15 K, x1 = 0.6	1029.29	2.41
303.15 K, x1 = 0.7002	1028.53	2.416
303.15 K, x1 = 0.7999	1027.37	2.378
303.15 K, x1 = 0.8997	1025.67	2.284
303.15 K, x1 = 1	1022.92	2.097
308.15 K, x1 = 0.0999	1022.66	1.646
308.15 K, x1 = 0.2	1023.5	1.786
308.15 K, x1 = 0.3001	1024.34	1.927
308.15 K, x1 = 0.4	1024.69	2.026
308.15 K, x1 = 0.4997	1024.79	2.116
308.15 K, x1 = 0.6	1024.38	2.16
308.15 K, x1 = 0.7002	1023.5	2.156
308.15 K, x1 = 0.7999	1022.2	2.115
308.15 K, x1 = 0.8997	1020.34	2.026
308.15 K, x1 = 1	1017.42	1.858
313.15 K, x1 = 0.0999	1018.16	1.525
313.15 K, x1 = 0.2	1018.95	1.646
313.15 K, x1 = 0.3001	1019.72	1.765
313.15 K, x1 = 0.4	1019.99	1.845
313.15 K, x1 = 0.4997	1020	1.918
313.15 K, x1 = 0.6	1019.48	1.948
313.15 K, x1 = 0.7002	1018.46	1.937
313.15 K, x1 = 0.7999	1017.01	1.896
313.15 K, x1 = 0.8997	1015	1.816
313.15 K, x1 = 1	1011.9	1.658
318.15 K, x1 = 0.0999	1013.66	1.417
318.15 K, x1 = 0.2	1014.4	1.523
318.15 K, x1 = 0.3001	1015.1	1.625
318.15 K, x1 = 0.4	1015.29	1.689
318.15 K, x1 = 0.4997	1015.19	1.748
318.15 K, x1 = 0.6	1014.55	1.768
318.15 K, x1 = 0.7002	1013.4	1.751
318.15 K, x1 = 0.7999	1011.81	1.712
318.15 K, x1 = 0.8997	1009.64	1.636
318.15 K, x1 = 1	1006.36	1.491
323.15 K, x1 = 0.0999	1009.17	1.329
323.15 K, x1 = 0.2	1009.85	1.422
323.15 K, x1 = 0.3001	1010.48	1.512
323.15 K, x1 = 0.4	1010.58	1.563
323.15 K, x1 = 0.4997	1010.38	1.615
323.15 K, x1 = 0.6	1009.62	1.62
323.15 K, x1 = 0.7002	1008.34	1.602
323.15 K, x1 = 0.7999	1006.6	1.568
323.15 K, x1 = 0.8997	1004.28	1.492
323.15 K, x1 = 1	1000.79	1.349
